Our source for the T/C values is PubChem BioAssay AID330 (DTP/NCI, 2004).

In the assay the test system is P388 leukemia ip, CD2F1 mice, survival T/C. Nature of the assay: NCI In Vivo Anticancer Drug Screen. Data for tumor model P388 Leukemia (intraperitoneal) in CD2F1 (CDF1) mice. The conditions noted are these: endpoint: median survival time, higher = longer survival. The method, boiled down: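 Mice carrying the transplanted tumor received test compound or vehicle. Survival was recorded in each group, and the value is the treated-group measurement divided by that of the vehicle-treated control group.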

The mark [1] stands for this setting: dose: 12.5 mg/kg/injection, schedule: Q01DX009 (ip), vehicle: Klucel (hydroxypropylcellulose) (HPC).
Setting [2] is: dose: 25.0 mg/kg/injection, schedule: Q01DX009 (ip), vehicle: Klucel (hydroxypropylcellulose) (HPC).
Where [3] appears, read: dose: 50.0 mg/kg/injection, schedule: Q01DX009 (ip), vehicle: Klucel (hydroxypropylcellulose) (HPC).
[4] abbreviates: dose: 50.0 mg/kg/injection, schedule: Q01DX009 (ip), vehicle: saline with Tween-80.
[5] abbreviates: dose: 100.0 mg/kg/injection, schedule: Q01DX009 (ip), vehicle: saline with Tween-80.
[6] abbreviates: dose: 200.0 mg/kg/injection, schedule: Q01DX009 (ip), vehicle: saline with Tween-80.

Several values for one entry are separate records, joined by “and”; a condition that tells them apart may be missing. Equal entries are not always repeated. Inconclusive results and toxic doses are left out.

In the case of `CN(C)NC(=O)/C=C\C(=O)O`, the T/C was 105 % of control (dose: 66.0 mg/kg/injection, schedule: Q01DX009 (ip), vehicle: saline); 100 % of control (dose: 100.0 mg/kg/injection, schedule: Q01DX009 (ip), vehicle: saline); 100 % of control (dose: 150.0 mg/kg/injection, schedule: Q01DX009 (ip), vehicle: saline); 91 % of control (dose: 200.0 mg/kg/injection, schedule: Q01DX009 (ip), vehicle: saline).

Regarding `CSc1nc(C(N)=O)cc(=O)[nH]1`, the T/C (dose: 3.12 mg/kg/injection, schedule: Q01DX009 (ip), vehicle: Klucel (hydroxypropylcellulose) (HPC)) is 104 % of control; the T/C (dose: 6.25 mg/kg/injection, schedule: Q01DX009 (ip), vehicle: Klucel (hydroxypropylcellulose) (HPC)) is 104 % of control; the T/C under setting [1] was 104 % of control and 106 % of control; the T/C under setting [2] was 105 % of control; the T/C under setting [3] was 92 % of control.

On to `CNC(=O)Oc1cccc(N=CN(C)C)c1`, for which the T/C is, setting by setting: (dose: 0.93 mg/kg/injection, schedule: Q01DX005 (ip), vehicle: saline) 97 % of control; (dose: 1.87 mg/kg/injection, schedule: Q01DX005 (ip), vehicle: saline) 101 % of control; (dose: 3.75 mg/kg/injection, schedule: Q01DX005 (ip), vehicle: saline) 95 % of control.

As to `COC(=O)NN(C(=O)OC)C12CCCC1N(C(=O)OC)N(C(=O)OC)c1c2ccc2cc(OC)ccc12` (stereo not drawn), the T/C is 99 % of control (dose: 100.0 mg/kg/injection, schedule: Q04DX002 (ip), vehicle: Klucel (hydroxypropylcellulose) (HPC)); 92 % of control (dose: 200.0 mg/kg/injection, schedule: Q04DX002 (ip), vehicle: Klucel (hydroxypropylcellulose) (HPC)); 90 % of control (dose: 400.0 mg/kg/injection, schedule: Q04DX002 (ip), vehicle: Klucel (hydroxypropylcellulose) (HPC)).

For the molecule `Cc1ncc([N+](=O)[O-])n1CCOC(=O)c1ccc(Cl)cc1`, the T/C reads like this: under setting [3], 102 % of control; (dose: 100.0 mg/kg/injection, schedule: Q01DX009 (ip), vehicle: Klucel (hydroxypropylcellulose) (HPC)) 100 % of control; (dose: 200.0 mg/kg/injection, schedule: Q01DX009 (ip), vehicle: Klucel (hydroxypropylcellulose) (HPC)) 98 % of control.

With `COc1cc2c(cc1O)C(CSC)Cc1cc(OC)c(OC)cc1N(C)CCC2` (stereo not drawn), the T/C by setting is: (dose: 100.0 mg/kg/injection, schedule: Q04DX003 (ip), vehicle: saline with Tween-80) 93 % of control; (dose: 200.0 mg/kg/injection, schedule: Q04DX003 (ip), vehicle: saline with Tween-80) 87 % of control; (dose: 400.0 mg/kg/injection, schedule: Q04DX003 (ip), vehicle: saline with Tween-80) 100 % of control.

On to `COC(=O)CCc1onc(Br)c1CCl`, for which the T/C is, setting by setting: under setting [4], 110 % of control; under setting [5], 115 % of control; under setting [6], 119 % of control.

Consider `On1cc/c(=N\N=C\c2ccc(N(CCCl)CCCl)cc2)c2ccc(Cl)cc21`, for which the T/C was 101 % of control under setting [4], 101 % of control under setting [5] and 94 % of control under setting [6].

As to `O=NN(C(=O)NC1CC1)C1CCCC1`, the T/C reads like this: (dose: 25.0 mg/kg/injection, schedule: Q01DX001 (ip), vehicle: distilled water + Tween-80) 103 % of control; (dose: 50.0 mg/kg/injection, schedule: Q01DX001 (ip), vehicle: distilled water + Tween-80) 109 % of control; (dose: 100.0 mg/kg/injection, schedule: Q01DX001 (ip), vehicle: distilled water + Tween-80) 102 % of control; (dose: 200.0 mg/kg/injection, schedule: Q01DX001 (ip), vehicle: distilled water + Tween-80) 111 % of control; (dose: 400.0 mg/kg/injection, schedule: Q01DX001 (ip), vehicle: distilled water + Tween-80) 102 % of control.

`O=C1C2C3CCC(O3)C2C(=O)N1CC#CCCl` (stereo not drawn): the T/C runs as follows: (dose: 7.5 mg/kg/injection, schedule: Q01DX005 (ip), vehicle: saline with Tween-80) 96 % of control; (dose: 15.0 mg/kg/injection, schedule: Q01DX005 (ip), vehicle: saline with Tween-80) 100 % of control.

Regarding `NC(N)=N/N=C/c1c2ccccc2cc2ccccc12`, the T/C by setting is: (dose: 6.25 mg/kg/injection, schedule: Q01DX005 (ip), vehicle: saline with Tween-80) 100 % of control and 101 % of control; (dose: 12.5 mg/kg/injection, schedule: Q01DX005 (ip), vehicle: saline with Tween-80) 107 % of control and 109 % of control and 121 % of control; (dose: 25.0 mg/kg/injection, schedule: Q01DX005 (ip), vehicle: saline with Tween-80) 104 % of control and 113 % of control and 121 % of control.

For the molecule `O=C(Nc1ccc(C2=NCCN2)cc1)c1ccc(NC(=O)c2ccc(C3=NCCN3)cc2)cc1`, the T/C (dose: 18.0 mg/kg/injection, schedule: Q01DX010 (ip), vehicle: saline) is 154 % of control and the T/C (dose: 27.0 mg/kg/injection, schedule: Q01DX010 (ip), vehicle: saline) is 172 % of control.

Take `Nc1cc(N)c(Nc2ccccc2)cc1Nc1ccccc1`: the T/C by setting is: (dose: 100.0 mg/kg/injection, schedule: Q01DX001 (ip), vehicle: Klucel (hydroxypropylcellulose) (HPC)) 99 % of control; (dose: 200.0 mg/kg/injection, schedule: Q01DX001 (ip), vehicle: Klucel (hydroxypropylcellulose) (HPC)) 101 % of control; (dose: 400.0 mg/kg/injection, schedule: Q01DX001 (ip), vehicle: Klucel (hydroxypropylcellulose) (HPC)) 97 % of control.

With `COC(=O)[C@@H]1CCC(/C(C#N)=C2/CC[C@@H](C(=O)OC)N2)=N1`, the T/C (dose: 60.0 mg/kg/injection, schedule: Q01DX005 (ip), vehicle: saline with Tween-80) is 96 % of control; the T/C (dose: 120.0 mg/kg/injection, schedule: Q01DX005 (ip), vehicle: saline with Tween-80) was 95 % of control; the T/C (dose: 240.0 mg/kg/injection, schedule: Q01DX005 (ip), vehicle: saline with Tween-80) was 94 % of control.

Consider `CCCCCCCCCCCC[N+](C)([O-])CCCCCC[N+](C)([O-])CCCCCCCCCCCC` (stereo not drawn), for which the T/C is, setting by setting: under setting [1], 96 % of control; under setting [2], 95 % of control; under setting [3], 100 % of control and 95 % of control.

On to `CN(C)c1nc(=O)c2ccccc2o1`, for which the T/C runs as follows: (dose: 15.0 mg/kg/injection, schedule: Q01DX005 (ip), vehicle: saline) 100 % of control; (dose: 30.0 mg/kg/injection, schedule: Q01DX005 (ip), vehicle: saline) 97 % of control; (dose: 60.0 mg/kg/injection, schedule: Q01DX005 (ip), vehicle: saline) 101 % of control and 95 % of control.

As for `CC1C(=O)OC2C(O)C34C5OC(=O)C3(OC3OC(=O)C(O)C34C(C(C)(C)C)C5O)C12O` (stereo not drawn), the T/C was 93 % of control (dose: 5.0 mg/kg/injection, schedule: Q01DX005 (ip), vehicle: Klucel (hydroxypropylcellulose) (HPC)); 95 % of control (dose: 10.0 mg/kg/injection, schedule: Q01DX005 (ip), vehicle: Klucel (hydroxypropylcellulose) (HPC)); 89 % of control (dose: 20.0 mg/kg/injection, schedule: Q01DX005 (ip), vehicle: Klucel (hydroxypropylcellulose) (HPC)); 93 % of control (dose: 40.0 mg/kg/injection, schedule: Q01DX005 (ip), vehicle: Klucel (hydroxypropylcellulose) (HPC)); 89 % of control (dose: 80.0 mg/kg/injection, schedule: Q01DX005 (ip), vehicle: Klucel (hydroxypropylcellulose) (HPC)).

Consider `C=CC(C)(C)[N+](C)(C)C`, for which the T/C by setting is: (dose: 12.5 mg/kg/injection, schedule: Q01DX009 (ip), vehicle: saline) 99 % of control; (dose: 25.0 mg/kg/injection, schedule: Q01DX009 (ip), vehicle: saline) 102 % of control.

Take `O=c1[nH]c(=O)n2ncnc2[nH]1`: the T/C reads like this: (dose: 25.0 mg/kg/injection, schedule: Q01DX009 (ip), vehicle: saline with Tween-80) 91 % of control; (dose: 50.0 mg/kg/injection, schedule: Q01DX005 (ip), vehicle: saline with Tween-80) 95 % of control; under setting [4], 95 % of control; (dose: 100.0 mg/kg/injection, schedule: Q01DX005 (ip), vehicle: saline with Tween-80) 95 % of control; under setting [5], 99 % of control; (dose: 200.0 mg/kg/injection, schedule: Q01DX005 (ip), vehicle: saline with Tween-80) 105 % of control. The T/C under setting [6] is 91 % of control.

Consider `CCOn1nnc2ccccc21`, for which the T/C was 92 % of control under setting [4], 95 % of control under setting [5] and 92 % of control under setting [6].
